{
  "source": "patent US20210113664A1",
  "about": "“IMPLANTS FOR RELEASE OF LIPOPHILIC OR AMPHIPHILIC PHARMACEUTICAL SUBSTANCES” (Titan Pharmaceuticals, Inc., priority 2018, published 2021)",
  "origin": "cited, not measured here",
  "conditions": "values as reported by PubChem",
  "data": [
    {"smiles": "CC#CCC(C)[C@H](O)/C=C/[C@@H]1[C@H]2C/C(=C/CCCC(=O)O)C[C@H]2C[C@H]1O", "note": "(some centres unmarked) [iloprost]", "values": [
      {"measurement": "log Poct", "value": "about 4.8"}
    ]},
    {"smiles": "N[C@@H](Cc1cc(I)c(Oc2cc(I)c(O)c(I)c2)c(I)c1)C(=O)O", "note": "[levothyroxine]", "values": [
      {"measurement": "log Poct", "value": "about 4"}
    ]}
  ]
}
